Assays:
NK1 receptor = biological target: T1, NK1 receptor (Cavia porcellus, UniProt P30547); assay: Antagonism of iodinated tachykinin binding: NK1 receptor affinity in guinea pig lungs (125I-Bolton Hunter Lys-3 labeled substance P); conditions: 125I-substance P 0.1 nM, 90 min room temperature, mean of several experiments
T1 construct: evaluated in guinea pig lungs; tissue Keystone Biologicals, Cleveland, Ohio; host or cells: guinea pig lung
Method: (§1) The NK1 receptor affinity of proposed tachykinin antagonists was evaluated in guinea pig lungs (Keystone Biologicals, Cleveland, Ohio) and affinity for the NK2 receptor evaluated in HSKR-1 cells (which are mouse 3T3 fibroblasts expressing the human jejunal NK2 receptor). Tissues or cells were homogenized with a Polytron in 15 volumes of 50 mM Tris-HCl buffer (pH 7.4, 4° C.) and centrifuged. The pellet was resuspended in Tris-HCl buffer and was centrifuged; the pellet was washed twice by resuspension. The final pellet was resuspended at a concentration of 40 mg/ml for tissues and 20 mg/ml for cells in incubation buffer and remained at room temperature for at least 15 min prior to use. Receptor binding was initiated by addition of 250 ul membrane preparation in duplicate to 0.1 nM of the following radioligands: ^125 I-Bolton Hunter Lys-3 labeled substance P and ^125 iodohistidyl-1-neurokinin A; in a final volume of 500 ul of buffer containing 50 mM Tris-HCl (pH 7.4 at room temperature), 0.1% bovine serum albumin, 2 mM MnCl2, 40 ug/ml bacitracin, 4 μg/ml leupeptin and chymostatin, 1 μM thiorphan and various doses of the putative tachykinin antagonists. Incubations were performed at room temperature for 90 min (NK1 receptor assays) or 2 hr (NK2 receptor assay); binding was terminated by addition of 50 mM Tris-HCl buffer (pH 7.4, 4° C.) and filtration under vacuum through GF/B filters presoaked with 0.1% polyethyleneimine (NK, receptor assays) or 0.5% bovine serum albumin (NK2 receptor assay). Filter bound radioactivity was quantitated in a gamma counter. Nonspecific binding was defined as binding in the presence of 1 μM substance P or neurokinin A. Specific binding was calculated by subtracting nonspecific binding from total binding. Competition of iodinated SP or NKA binding by test compounds or standards was expressed as a percentage of this maximum competition. IC50 values (concentration required to inhibit 50% of receptor binding) were generated for each of the test compounds by nonlinear regression using an iterative curve fitting program (GraphPAD Inplot, San Diego, Calif.).
(§2) IC50 values for some of the compounds of the present invention are found in Table 1 and represent the mean of several experiments.

[1] = biological target: T2, human jejunal NK2 receptor (Homo sapiens, UniProt P21452); assay: Antagonism of iodinated tachykinin binding: NK2 receptor affinity in HSKR-1 cells (125 iodohistidyl-1-neurokinin A); conditions: HSKR-1 cells (mouse 3T3 fibroblasts expressing human jejunal NK2 receptor); 125I-neurokinin A 0.1 nM; 2 hr room temperature; mean of several experiments
T2 construct: expressed in transfected cells; host or cells: HSKR-1 cells (mouse 3T3 fibroblasts)
T2 sequence (P21452 1-398): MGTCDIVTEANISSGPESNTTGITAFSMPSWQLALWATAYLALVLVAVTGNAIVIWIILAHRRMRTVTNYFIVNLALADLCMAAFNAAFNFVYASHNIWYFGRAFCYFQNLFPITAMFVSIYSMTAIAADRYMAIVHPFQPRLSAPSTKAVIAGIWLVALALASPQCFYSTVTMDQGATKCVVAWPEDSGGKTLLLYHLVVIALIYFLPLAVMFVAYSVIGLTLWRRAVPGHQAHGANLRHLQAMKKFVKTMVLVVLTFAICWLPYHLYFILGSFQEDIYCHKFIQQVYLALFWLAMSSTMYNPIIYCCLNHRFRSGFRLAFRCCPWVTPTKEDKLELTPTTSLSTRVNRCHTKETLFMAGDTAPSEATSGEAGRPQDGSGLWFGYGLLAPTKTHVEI
Method: as §1, §2

T1 sequence (P30547 whole entry): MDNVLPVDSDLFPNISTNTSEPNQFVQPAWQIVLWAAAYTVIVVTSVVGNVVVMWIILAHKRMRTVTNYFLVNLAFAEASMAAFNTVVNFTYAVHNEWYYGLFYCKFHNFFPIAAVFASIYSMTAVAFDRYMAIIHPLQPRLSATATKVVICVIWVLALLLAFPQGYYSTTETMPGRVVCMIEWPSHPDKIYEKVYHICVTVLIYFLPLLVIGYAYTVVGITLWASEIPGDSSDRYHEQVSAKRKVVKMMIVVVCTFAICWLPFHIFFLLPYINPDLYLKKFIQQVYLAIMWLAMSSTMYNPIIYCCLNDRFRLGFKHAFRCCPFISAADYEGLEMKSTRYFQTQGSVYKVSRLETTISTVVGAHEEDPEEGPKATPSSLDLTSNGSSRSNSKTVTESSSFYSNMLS

IC50 (NK1 receptor) [nM]	IC50 [1] [nM]	SMILES
953	131	CC(Cc1c[nH]c2ccccc12)NCCN[C@@H](Cc1ccccc1)C(=O)N(C)Cc1ccccc1 (mixture of isomers) [Compound No. 11, (S)-N-Benzyl-N-methyl-2-[[(R and S)-2-(1H-indol-3-yl)-1-methyl-ethylamino]-ethylamino]-3-phenyl-propionamide]
61.5	632	COC(=O)[C@H](Cc1c[nH]c2ccccc12)NCCN[C@@H](Cc1ccc2ccccc2c1)C(=O)N(C)Cc1ccc(Cl)c(Cl)c1 [Compound No. 2, (S)-N-(3,4-Dichlorobenzyl)-N-methyl-2-[[(S)-2-(1H-indol-3-yl)-1-carboxymethyl-ethylamino]-ethylamino]-3-(naphth-2-yl)-propionamide]
929	215	COC(=O)[C@@H](Cc1c[nH]c2ccccc12)NCCN[C@@H](Cc1ccccc1)C(=O)N(C)Cc1ccccc1 [Compound No. 3, (S)-N-Benzyl-N-methyl-2-[[(R)-2-(1H-indol-3-yl)-1-carboxymethyl-ethylamino]-ethylamino]-3-phenyl-propionamide]
146	271	COC(=O)[C@H](Cc1c[nH]c2ccccc12)NCCN[C@@H](Cc1ccccc1)C(=O)N(C)Cc1ccccc1OC [Compound No. 4, (S)-N-(2-Methoxybenzyl)-N-methyl-2-[[(S)-2-(1H-indol-3-yl)-1-carboxymethyl-ethylamino]-ethylamino]-3-phenyl-propionamide]
78.1	284	COC(=O)[C@H](Cc1c[nH]c2ccccc12)NCCN[C@@H](Cc1ccc2ccccc2c1)C(=O)N(C)Cc1ccccc1 [Compound No. 5]
294	228	COC(=O)[C@H](Cc1c[nH]c2ccccc12)NCCN[C@@H](Cc1ccccc1)C(=O)N(C)Cc1ccccc1 [Compound No. 6, (S)-N-Benzyl-N-methyl-2-[[(S)-2-(1H-indol-3-yl)-1-carboxymethyl-ethylamino]-ethylamino]-3-phenyl-propionamide]
472	211	CN(Cc1ccccc1)C(=O)[C@H](Cc1ccccc1)NCCN[C@@H](Cc1c[nH]c2ccccc12)C(N)=O [Compound No. 7, (S)-N-Benzyl-N-methyl-2-[[(S)-2-(1H-indol-3-yl)-1-carboxylic acid amide-ethylamino]-ethylamino]-3-phenyl-propionamide]
711	1990	COC(=O)[C@H](Cc1c[nH]c2ccccc12)NCCN[C@@H](Cc1ccccc1)C(=O)N(C)Cc1cc(OC)c(OC)c(OC)c1 [Compound No. 8, (S)-N-(3,4,5-Trimethoxybenzyl)-N-methyl-2-[[(S)-2-(1H-indol-3-yl)-1-carboxymethyl-ethylamino]ethylamino]-3-phenyl-propionamide]
778	114	CN(Cc1ccccc1)C(=O)[C@H](Cc1ccccc1)NCCNCCc1c[nH]c2ccccc12 [Compound No. 9]
631	2560	COC(=O)[C@H](Cc1c[nH]c2ccccc12)NCCN[C@@H](Cc1ccccc1)CN(C)C(=O)c1cc(OC)c(OC)c(OC)c1 [Compound No. 10, N-Methyl-N-[(S)-2-[[(S)-2-(1H-indol-3-yl)-1-carboxymethyl-ethylamino]-ethylamino]-3-phenyl-propyl]-(3,4,5-trimethoxy)benzamide]
1430	1440	COC(=O)[C@H](Cc1ccccc1)NCCN[C@@H](Cc1ccccc1)C(=O)N(C)Cc1ccccc1 [Compound No. 12, (S)-N-Benzyl-N-methyl-2-[[(S)-2-phenyl-1-carboxymethyl-ethylamino]-ethylamino]-3-phenyl-propionamide]
2410	4710	COC(=O)[C@@H](NCCN[C@@H](Cc1ccccc1)C(=O)N(C)Cc1ccccc1)c1ccccc1 [Compound No. 13, (S)-N-Benzyl-N-methyl-2-[[(S)-1-phenyl-1-carboxymethyl-methylamino]-ethylamino]-3-phenyl-propionamide]
10000	1220	COC(=O)[C@H](Cc1c[nH]c2ccccc12)NCCN[C@@H](Cc1ccccc1)CN(C)C(=O)c1ccccc1 [Compound No. 14, N-Methyl-N-[(S)-2-[[(S)-2-(1H-indol-3-yl)-1-carboxymethyl-ethylamino]-ethylamino]-3-phenyl-propyl]-benzamide]
3800	1580	CN(Cc1ccccc1)C(=O)[C@H](Cc1ccccc1)NCCN[C@@H](Cc1c[nH]c2ccccc12)C(=O)O [Compound No. 16, (S)-N-Benzyl-N-methyl-2-[[(S)-2-(1H-indol-3-yl)-1-carboxy-ethylamino]-ethylamino]-3-phenyl-propionamide]

SMILES	IC50 (NK1 receptor) [nM]	IC50 [1] [nM]
COC(=O)[C@H](Cc1c[nH]c2ccccc12)NCCN(C(=O)OC(C)(C)C)[C@@H](Cc1ccc2ccccc2c1)C(=O)N(C)Cc1ccccc1 [Compound No. 15, (S)-N-Benzyl-N-methyl-2-[[(S)-2-(1H-indol-3-yl)-1-carboxymethyl-ethylamino]-N'-(t-butoxycarbonyl)ethylamino]-3-(naphth-2-yl)-propionamide]	> 10000	2560
